Laboratory results: patent US7786114B2, “Bis-azaindole derivatives, preparation and pharmaceutical use thereof as kinase inhibitors” (Aventis Pharma S.A., priority 2004, dated 2010)

Compound | melting point
COc1cc2c(nc1OC)c(-c1cc3cc(F)cnc3[nH]1)cn2CCN1CCOCC1 [Example 7, 3-(5-fluoro-1H-pyrrolo[2,3-b]pyridin-2-yl)-5,6-dimethoxy-1-(2-morpholin-4-ylethyl)-1H-pyrrolo[3,2-b]pyridine] | 218 °C
COc1cc2c(nc1OC)c(-c1cc3c(Cl)c(F)cnc3[nH]1)cn2CCN1CCOCC1 [Example 8, 3-(4-chloro-5-fluoro-1H-pyrrolo[2,3-b]pyridin-2-yl)-5,6-dimethoxy-1-(2-morpholin-4-yl-ethyl)-1H-pyrrolo[3,2-b]pyridine] | 206 °C
COc1cc2[nH]cc(-c3cc4c(Cl)c(F)cnc4[nH]3)c2nc1OC [Example 9, 3-[4-Chloro-5-fluoro-1H-pyrrolo[2,3-b]pyridin-2-yl]-5,6-dimethoxy-1H-pyrrolo[3,2-b]pyridine] | 283 to 284 °C
COc1cc2c(nc1OC)c(-c1cc3c(Cl)c(F)cnc3[nH]1)cn2CCCN1CCCCC1 [Example 11, 3-[4-Chloro-5-fluoro-1H-pyrrolo[2,3-b]pyridin-2-yl]-5,6-dimethoxy-1-(3-piperidin-1-ylpropyl)-1H-pyrrolo[3,2-b]pyridine] | 110 to 114 °C
COc1cc2c(nc1OC)c(-c1cc3c(Cl)c(F)cnc3[nH]1)cn2CCCN1CCC(O)CC1 [Example 12, 1-{3-[3-(4-Chloro-5-fluoro-1H-pyrrolo[2,3-b]pyridin-2-yl)-5,6-dimethoxypyrrolo[3,2-b]pyridin-1-yl]propyl}piperidin-4-ol] | 188 °C
COc1cc2c(nc1OC)c(-c1cc3c(Cl)c(F)cnc3[nH]1)cn2CCCN1CCCN(C)CC1 [Example 13, 3-(4-Chloro-5-fluoro-1H-pyrrolo[2,3-b]pyridin-2-yl)-5,6-dimethoxy-1-[3-(4-methylperhydro-1,4-diazepin-1-yl)propyl]-1H-pyrrolo[3,2-b]pyridine] | 140 to 145 °C
COc1cc2c(nc1OC)c(-c1cc3c(Cl)c(F)cnc3[nH]1)cn2CCCN1CCOCC1 [Example 14, 3-(4-Chloro-5-fluoro-1H-pyrrolo[2,3-b]pyridin-2-yl)-5,6-dimethoxy-1-(3-morpholin-4-ylpropyl)-1H-pyrrolo[3,2-b]pyridine] | 189 °C
COc1cc2c(nc1OC)c(-c1cc3c(Cl)c(F)cnc3[nH]1)cn2CCCN1CCC(CN)CC1 [Example 15, C-(1-{3-[3-(4-Chloro-5-fluoro-1H-pyrrolo[2,3-b]pyridin-2-yl)-5,6-dimethoxypyrrolo[3,2-b]pyridin-1-yl]propyl}piperidin-4-yl)methylamine] | 135 °C
COc1cc2c(nc1OC)c(-c1cc3c(Cl)c(F)cnc3[nH]1)cn2CCCN1CCN(C)CC1 [Example 16, 3-(4-Chloro-5-fluoro-1H-pyrrolo[2,3-b]pyridin-2-yl)-5,6-dimethoxy-1-[3-(4-methylpiperazin-1-yl)propyl]-1H-pyrrolo[3,2-b]pyridine] | 155 °C
